Assay results taken from US12227501B2, “3-amino-2-[2-(acylamino)pyridin-4-yl]-1,5,6,7-tetrahydro-4h-pyrrolo[3,2-c]pyridin-4-one as CSNK1 inhibitors” (Bayer Aktiengesellschaft, priority 2019, dated 2025).
Like-named read-outs stand apart in the source and are kept apart here.

What was measured:
Assay type in all cases: biochemical
[1] = target: wild-type Epidermal Growth Factor Receptor (EGFR) (Homo sapiens (Human), UniProt P00533); assay: WT-EGFR Kinase Assay (TR-FRET, 2 mM ATP)
[2] = target: T1, human CSNK1A1 (Homo sapiens (Human), UniProt P48729); assay: CSNK1A1 High ATP Assay (ADP-Glo, 1 mM ATP); conditions: read-out: CSNK1A1 high ATP assay IC50 [mol/l] (median)
T1 sequence (P48729 whole entry): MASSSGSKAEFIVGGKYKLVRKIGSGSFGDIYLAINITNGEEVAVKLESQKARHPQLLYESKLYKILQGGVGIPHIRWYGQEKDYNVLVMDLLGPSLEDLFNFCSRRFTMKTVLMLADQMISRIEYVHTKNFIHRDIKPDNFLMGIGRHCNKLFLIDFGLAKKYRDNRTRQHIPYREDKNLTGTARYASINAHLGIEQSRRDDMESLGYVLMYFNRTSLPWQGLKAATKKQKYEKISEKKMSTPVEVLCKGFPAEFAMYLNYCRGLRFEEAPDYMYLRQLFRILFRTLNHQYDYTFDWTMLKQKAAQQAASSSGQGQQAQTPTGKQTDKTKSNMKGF
Method in brief: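 GST-tagged full-length human CSNK1A1 from baculovirus-infected insect cells (typically about 0.4 ng/μL), pre-incubated with compound 15 min at 22 °C. Reaction with biotinylated peptide biotin-Ahx-KRRRAL-pS-VASLPGL at 1 mM ATP. ADP formed read by ADP-Glo luminescence.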

[3] = target: T1, human CSNK1A1; assay: CSNK1A1 Assay 1 (ADP-Glo, 1 μM ATP); conditions: substrate Btn-Ahx-SGSEGDSESGEEEG, read-out: CSNK1A1 Assay 1 IC50 [mol/l] (median)
Experimental: CSNK1A1-inhibitory activity of compounds of the present invention in presence of 1 μM adenosine-tri-phosphate (ATP) was quantified employing the CSNK1A1 assay as described in the following paragraphs. In essence, the enzyme activity is measured by quantification of the adenosine-di-phosphate (ADP), which is generated as a co-product of the enzyme reaction, via the “ADP-Glo™ Kinase Assay” kit from the company Promega. This detection system works as follows: In a first step the ATP not consumed in the kinase reaction is quantitatively converted to cAMP employing an adenylate cyclase (“ADP-Glo-reagent”), then the adenylate cyclase is stopped and the ADP generated in the kinase reaction converted to ATP which generates in a luciferase-based reaction a glow-luminescence signal (“Kinase Detection Reagent”). Recombinant fusion protein of N-terminal Glutathion-S-Transferase (GST) and full-length human CSNK1A1, expressed by baculovirus infected insect cells and purified via Glutathion affinity chromatography, was purchased from Life Technologies (product no. PV4174) and used as enzyme. As substrate for the kinase reaction the biotinylated peptide Btn-Ahx-[…] (C-terminus in amide form) was used which can be purchased e.g. from the company Biosyntan (Berlin-Buch, Germany).
For the assay 50 nl of a 100 fold concentrated solution of the test compound in DMSO was pipetted into a white 1536-well microtiter plate (Greiner Bio-One, Frickenhausen, Germany), 2 μL of a solution of CSNK1A1 in aqueous assay buffer [50 mM HEPES pH 7.5, 10% (v/v) glycerol, 10 mM MgCl2, 50 mM NaCl, 1 mM dithiothreitol, 0.01% (w/v) bovine serum albumin, 0.01% (v/v) Triton X-100] were added and the mixture was incubated for 15 min at 22° C. to allow pre-binding of the test compounds to the enzyme before the start of the kinase reaction. […] The concentration of CSNK1A1 was adjusted depending of the activity of the enzyme lot and was chosen appropriate to have the assay in the linear range, a typical concentration is 0.15 ng/μL. The reaction was stopped by the addition of 2.5 μL of “ADP-Glo-reagent” (1:1.5 fold diluted with water) and the resulting mixture was incubated at 22° C. for 1 h to convert the ATP not consumed in the kinase reaction completely […]. Subsequently 2.5 μL of the “kinase detection reagent” (1.2 fold more concentrated than recommended by the producer) were added, the resulting mixture was incubated at 22° C. for 1 h and then the luminescence measured with a suitable measurement instrument (e.g. Viewlux™ from Perkin-Elmer). The amount of emitted light was taken as a measure for the amount of ADP generated and thereby for the activity of the CSNK1A1.

[4] = target: human CSNK1D (Homo sapiens (Human), UniProt P48730); assay: CSNK1D Assay (ADP-Glo, 1 μM ATP); conditions: read-out: CSNK1D IC50 [mol/l] (median)
Chain of human CSNK1D (P48730 whole entry): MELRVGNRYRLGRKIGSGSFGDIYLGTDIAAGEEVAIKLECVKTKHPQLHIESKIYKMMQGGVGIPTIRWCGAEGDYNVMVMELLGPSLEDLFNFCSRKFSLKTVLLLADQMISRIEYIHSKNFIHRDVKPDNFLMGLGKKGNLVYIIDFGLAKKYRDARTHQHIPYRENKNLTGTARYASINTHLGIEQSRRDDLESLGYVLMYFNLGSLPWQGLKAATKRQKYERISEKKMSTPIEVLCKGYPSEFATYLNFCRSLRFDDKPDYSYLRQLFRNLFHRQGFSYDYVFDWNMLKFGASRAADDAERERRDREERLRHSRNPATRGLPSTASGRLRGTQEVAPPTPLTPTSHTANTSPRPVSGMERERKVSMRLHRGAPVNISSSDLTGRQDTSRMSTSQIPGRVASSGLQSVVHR
Method in brief: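 GST-tagged full-length human CSNK1D from baculovirus-infected insect cells, typically ~0.5 ng/μL, with biotinylated peptide substrate and 1 μM ATP in HEPES pH 7.5 buffer. Compound is preincubated with enzyme 15 min at 22 °C. ADP formed is quantified by ADP-Glo luminescence.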

[5] = target: T1, human CSNK1A1; assay: CSNK1A1 Assay 2 (ADP-Glo, 1 μM ATP); conditions: substrate biotin-Ahx-KRRRAL-pS-VASLPGL, read-out: CSNK1A1 Assay 2 IC50 [mol/l] (median)
Method in brief: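 Full-length human CSNK1A1 as an N-terminal GST fusion (baculovirus/insect cells) with biotinylated peptide substrate biotin-Ahx-KRRRAL-pS-VASLPGL and 1 μM ATP, in HEPES pH 7.5 buffer. Compounds were pre-incubated with enzyme (~0.0375 ng/μL) for 15 min at 22 °C. Generated ADP was read by ADP-Glo luminescence as the activity measure.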

[6] = read-out: EGFR Wildtyp- 2 mM ATP IC50 [mol/l] (median)
[7] = EGFR Wildtyp- 2 mM ATP IC50 [mol/l] (median)

Chain of wild-type Epidermal Growth Factor Receptor (EGFR) (P00533 669-1210): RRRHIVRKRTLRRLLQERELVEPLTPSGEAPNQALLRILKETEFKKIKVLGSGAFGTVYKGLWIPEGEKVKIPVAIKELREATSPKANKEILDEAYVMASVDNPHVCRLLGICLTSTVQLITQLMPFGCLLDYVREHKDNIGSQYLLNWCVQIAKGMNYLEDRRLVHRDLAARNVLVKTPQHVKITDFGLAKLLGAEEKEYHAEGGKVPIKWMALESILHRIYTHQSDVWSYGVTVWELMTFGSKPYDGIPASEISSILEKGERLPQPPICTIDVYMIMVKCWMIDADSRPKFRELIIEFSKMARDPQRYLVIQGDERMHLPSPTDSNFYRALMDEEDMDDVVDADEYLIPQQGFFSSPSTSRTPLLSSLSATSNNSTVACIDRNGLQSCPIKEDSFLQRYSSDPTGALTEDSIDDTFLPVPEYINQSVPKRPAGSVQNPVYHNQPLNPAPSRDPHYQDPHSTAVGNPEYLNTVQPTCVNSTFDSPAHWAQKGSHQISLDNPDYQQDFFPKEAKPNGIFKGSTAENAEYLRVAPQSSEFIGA

Row | SMILES | IC50 [1, 6] [nM] | IC50 [2] [nM] | IC50 [3] [nM] | IC50 [4] [nM] | IC50 [1, 7] [nM] | IC50 [5] [nM]
1 | CN1CCc2[nH]c(-c3ccnc(NC(=O)Cc4ccc(F)cc4)c3)c(Nc3ccccn3)c2C1=O [Example 12, 2-(4-fluorophenyl)-N-(4-{5-methyl-4-oxo-3-[(pyridin-2-yl)amino]-4,5,6,7-tetrahydro-1H-pyrrolo[3,2-c]pyridin-2-yl}pyridin-2-yl)acetamide] | > 20000 | 5.2 | 2.32 | 10.2 |  | 
2 | CN1CCc2[nH]c(-c3ccnc(NC(=O)Cc4ccccc4)c3)c(Nc3ccccc3)c2C1=O [Example 2, N-[4-(3-anilino-5-methyl-4-oxo-4,5,6,7-tetrahydro-1H-pyrrolo[3,2-c]pyridin-2-yl)pyridin-2-yl]-2-phenylacetamide] | 1170 | 114 | 3.95 | 5.41 |  | 
3 | Cc1cc(CC(=O)Nc2cc(-c3[nH]c4c(c3Nc3ccccc3)C(=O)N(C)CC4)ccn2)ccc1F [Example 3, N-[4-(3-anilino-5-methyl-4-oxo-4,5,6,7-tetrahydro-1H-pyrrolo[3,2-c]pyridin-2-yl)pyridin-2-yl]-2-(4-fluoro-3-methylphenyl)acetamide] | 2130 | 78.4 | 4.28 | 5.66 |  | 
4 | CC(C(=O)Nc1cc(-c2[nH]c3c(c2Nc2ccccc2)C(=O)N(C)C(C)C3)ccn1)c1ccc(F)cc1 (single isomer, unassigned; (-)) [Example 95, (−)-N-{4-[3-anilino-5,6-dimethyl-4-oxo-4,5,6,7-tetrahydro-1H-pyrrolo[3,2-c]pyridin-2-yl]pyridin-2-yl}-2-(4-fluorophenyl)propanamide] |  | 2460 |  | 45.3 | 6310 | 46.2
5 | O=C1NC2(CC2)Cc2[nH]c(-c3ccnc(NC(=O)C(CC(F)F)c4ccc(F)cc4)c3)c(Nc3ccccc3)c21 (racemic) [Example 147, N-[4-(3′-anilino-4′-oxo-1′,4′,5′,7′-tetrahydrospiro[cyclopropane-1,6′-pyrrolo[3,2-c]pyridin]-2′-yl)pyridin-2-yl]-4,4-difluoro-2-(4-fluorophenyl)butanamide (Racemate)] |  | 19.2 |  | 11.6 | 268 | 6.2
6 | CC(C(=O)Nc1cc(-c2[nH]c3c(c2Nc2ccccc2)C(=O)NCC3)ccn1)c1ccc(F)cc1 (single isomer, unassigned) [Example 10, N-[4-(3-anilino-4-oxo-4,5,6,7-tetrahydro-1H-pyrrolo[3,2-c]pyridin-2-yl)pyridin-2-yl]-2-(4-fluorophenyl)propanamide] |  | 25.5 |  | 14 | 12400 | 4.61
7 | CC(C(=O)Nc1cc(-c2[nH]c3c(c2Nc2ccccc2Cl)C(=O)NCC3)ccn1)c1ccc(F)cc1 (single isomer, unassigned) [Example 16, N-{4-[3-(2-chloroanilino)-4-oxo-4,5,6,7-tetrahydro-1H-pyrrolo[3,2-c]pyridin-2-yl]pyridin-2-yl}-2-(4-fluorophenyl)propanamide] | > 20000 | 102 |  | 8 |  | 2.57
8 | CN1CCc2[nH]c(-c3ccnc(NC(=O)Cc4cnccn4)c3)c(Nc3ccccc3)c2C1=O [Example 114, N-[4-(3-anilino-5-methyl-4-oxo-4,5,6,7-tetrahydro-1H-pyrrolo[3,2-c]pyridin-2-yl)pyridin-2-yl]-2-(pyrazin-2-yl)acetamide] | 2060 | 227 |  | 4.7 |  | 2.43
9 | CN1C(=O)c2c([nH]c(-c3ccnc(NC(=O)C(CC(F)F)c4ccc(F)cc4)c3)c2Nc2ccccc2)CC12CCC2 (racemic) [Example 160, N-[4-(3′-anilino-5′-methyl-4′-oxo-1′,4′,5′,7′-tetrahydrospiro[cyclobutane-1,6′-pyrrolo[3,2-c]pyridin]-2′-yl)pyridin-2-yl]-4,4-difluoro-2-(4-fluorophenyl)butanamide (Racemate)] |  | 27.2 |  | 15.8 | > 20000 | 13.3
